Data published in ChEMBL document CHEMBL1201862, “PubChem BioAssay data set” (2004).
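Briefly, cells in 96-well plates were exposed to five compound concentrations for 48 h, and endpoints were estimated by linear interpolation. Abbreviation: GI50, concentration required for 50% inhibition of growth.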 Active and inactive are the calls of the source. No stated cut-off is given here; in the data, active = GI50 up to about 1.1 µM and inactive = higher.

Assays:
Assay in all cases: NCI anticancer screen, dose series, 48 h
[1] = system: A498
[2] = system: CCRF-CEM
[3] = system: HCT-116
[4] = system: K562
[5] = system: MDA-MB-435
[6] = system: Malme-3M
[7] = system: NCI-H226
[8] = system: NCI-H23
[9] = system: NCI-H522
[10] = system: NCI/ADR-RES
[11] = system: OVCAR-3
[12] = system: OVCAR-4
[13] = system: RPMI-8226
[14] = system: SK-MEL-28
[15] = system: SK-MEL-5
[16] = system: SNB-19
[17] = system: U-251
[18] = system: UACC-62
[19] = system: HCC 2998

SMILES	GI50 [1]	GI50 [2]	GI50 [3]	GI50 [4]	GI50 [5]	GI50 [6]	GI50 [7]	GI50 [8]	GI50 [9]	GI50 [10]	GI50 [11]	GI50 [12]	GI50 [13]	GI50 [14]	GI50 [15]	GI50 [16]	GI50 [17]	GI50 [18]	GI50 [19]
CC(CC(=O)O)C(C(=O)O)C(=O)O (centres undefined)	> 100 µM (inactive)	> 100 µM (inactive)	> 100 µM (inactive)	> 100 µM (inactive)	> 100 µM (inactive)	> 100 µM (inactive)	> 100 µM (inactive)	> 100 µM (inactive)	> 100 µM (inactive)	> 100 µM (inactive)	> 100 µM (inactive)	> 100 µM (inactive)	> 100 µM (inactive)	> 100 µM (inactive)	> 100 µM (inactive)	> 100 µM (inactive)	> 100 µM (inactive)	> 100 µM (inactive)	–
CCS(=O)(=O)CCn1cnc2c1c(=O)n(C)c(=O)n2C	> 100 µM (inactive)	> 100 µM (inactive)	> 100 µM (inactive)	> 100 µM (inactive)	> 100 µM (inactive)	–	> 100 µM (inactive)	> 100 µM (inactive)	> 100 µM (inactive)	> 100 µM (inactive)	> 100 µM (inactive)	> 100 µM (inactive)	–	> 100 µM (inactive)	> 100 µM (inactive)	> 100 µM (inactive)	> 100 µM (inactive)	> 100 µM (inactive)	> 100 µM (inactive)
Cc1coc2c1CC1OC1(C)CCC1OC1(C)C2 (centres undefined)	> 100 µM (inactive)	> 100 µM (inactive)	> 100 µM (inactive)	> 100 µM (inactive)	> 100 µM (inactive)	–	> 100 µM (inactive)	> 100 µM (inactive)	> 100 µM (inactive)	> 100 µM (inactive)	> 100 µM (inactive)	> 100 µM (inactive)	> 100 µM (inactive)	> 100 µM (inactive)	> 100 µM (inactive)	> 100 µM (inactive)	> 100 µM (inactive)	> 100 µM (inactive)	> 100 µM (inactive)
CCOC(=O)C(Cc1ccc(N(CCCl)CCCl)cc1)NC(=O)C(Cc1ccccc1)NC(C)=O (centres undefined)	> 0.288 µM (active)	0.0353 µM (active)	> 0.265 µM (active)	> 0.279 µM (active)	0.264 µM (active)	0.0887 µM (active)	> 1 µM (active)	0.162 µM (active)	–	> 0.33 µM (active)	0.173 µM (active)	0.0159 µM (active)	0.0655 µM (active)	–	0.248 µM (active)	> 0.38 µM (active)	> 0.316 µM (active)	0.136 µM (active)	> 1 µM (active)
CC(C)(C)c1cc(/C=C(\C#N)C(=O)NCCO)cc(C(C)(C)C)c1O	20.3 µM (inactive)	15.1 µM (inactive)	16.9 µM (inactive)	24 µM (inactive)	21.1 µM (inactive)	17.3 µM (inactive)	19.5 µM (inactive)	27.9 µM (inactive)	16.5 µM (inactive)	23 µM (inactive)	14.6 µM (inactive)	17.8 µM (inactive)	12.3 µM (inactive)	21.6 µM (inactive)	14.9 µM (inactive)	32.1 µM (inactive)	18 µM (inactive)	13.6 µM (inactive)	–
O=S1(=O)c2ccccc2N(c2ccccc2)c2nnnn21	23.6 µM (inactive)	3.86 µM (inactive)	26.4 µM (inactive)	29.4 µM (inactive)	29.4 µM (inactive)	–	36.1 µM (inactive)	28.5 µM (inactive)	17.6 µM (inactive)	31.4 µM (inactive)	18.5 µM (inactive)	16.7 µM (inactive)	–	22.4 µM (inactive)	34.4 µM (inactive)	23.3 µM (inactive)	32.7 µM (inactive)	15.7 µM (inactive)	17.7 µM (inactive)
CC1(CCOCc2ccccc2)NC(=O)NC1=O (centres undefined)	> 100 µM (inactive)	–	> 100 µM (inactive)	> 100 µM (inactive)	> 100 µM (inactive)	> 100 µM (inactive)	> 100 µM (inactive)	> 100 µM (inactive)	> 100 µM (inactive)	> 100 µM (inactive)	> 100 µM (inactive)	> 100 µM (inactive)	–	> 100 µM (inactive)	> 100 µM (inactive)	> 100 µM (inactive)	> 100 µM (inactive)	> 100 µM (inactive)	> 100 µM (inactive)
O=C1c2ccccc2-c2c1c(-c1ccc([N+](=O)[O-])cc1)nc1ccc3ccccc3c21	> 100 µM (inactive)	> 100 µM (inactive)	> 100 µM (inactive)	> 100 µM (inactive)	> 100 µM (inactive)	> 100 µM (inactive)	> 100 µM (inactive)	> 100 µM (inactive)	–	> 100 µM (inactive)	> 100 µM (inactive)	> 100 µM (inactive)	> 100 µM (inactive)	> 100 µM (inactive)	–	> 100 µM (inactive)	> 100 µM (inactive)	> 100 µM (inactive)	> 100 µM (inactive)
C=C1C(=O)OC2C1CCC(C)C1(O)C=CC(=O)C21C (centres undefined)	5.46 µM (inactive)	2.73 µM (inactive)	5.04 µM (inactive)	4.45 µM (inactive)	> 10 µM (inactive)	> 10 µM (inactive)	> 10 µM (inactive)	7.69 µM (inactive)	–	3.95 µM (inactive)	4.9 µM (inactive)	7.6 µM (inactive)	5.43 µM (inactive)	5.92 µM (inactive)	> 10 µM (inactive)	> 10 µM (inactive)	> 10 µM (inactive)	6.68 µM (inactive)	> 10 µM (inactive)
O=C(CNC(c1ccccc1)(c1ccccc1)c1ccccc1)NC1CCCCC1NC(=O)CNC(c1ccccc1)(c1ccccc1)c1ccccc1 (centres undefined)	> 100 µM (inactive)	> 100 µM (inactive)	> 100 µM (inactive)	> 100 µM (inactive)	> 100 µM (inactive)	> 100 µM (inactive)	–	> 100 µM (inactive)	> 100 µM (inactive)	> 100 µM (inactive)	> 100 µM (inactive)	> 100 µM (inactive)	> 100 µM (inactive)	> 100 µM (inactive)	> 100 µM (inactive)	> 100 µM (inactive)	43 µM (inactive)	> 100 µM (inactive)	> 100 µM (inactive)
O=S(=O)(Cc1cnc(O)nc1O)Cc1cnc(O)nc1O	> 100 µM (inactive)	–	> 100 µM (inactive)	> 100 µM (inactive)	> 100 µM (inactive)	> 100 µM (inactive)	> 100 µM (inactive)	> 100 µM (inactive)	> 100 µM (inactive)	> 100 µM (inactive)	–	> 100 µM (inactive)	> 100 µM (inactive)	> 100 µM (inactive)	> 100 µM (inactive)	> 100 µM (inactive)	> 100 µM (inactive)	> 100 µM (inactive)	–
CC(=O)CC(=O)Nc1ccc2ccccc2c1	> 100 µM (inactive)	36.8 µM (inactive)	> 100 µM (inactive)	46.9 µM (inactive)	67.9 µM (inactive)	> 100 µM (inactive)	> 100 µM (inactive)	86.9 µM (inactive)	47.2 µM (inactive)	67.3 µM (inactive)	34.6 µM (inactive)	29.4 µM (inactive)	45.6 µM (inactive)	> 100 µM (inactive)	72.4 µM (inactive)	> 100 µM (inactive)	> 100 µM (inactive)	> 100 µM (inactive)	–
Cc1cc2c(c(/C=N/c3ccc([N+](=O)[O-])cc3)c1)OC1(C=C2)Oc2ccccc2C(=O)N1C (centres undefined)	16.8 µM (inactive)	12.2 µM (inactive)	14.6 µM (inactive)	19.2 µM (inactive)	31.2 µM (inactive)	–	16 µM (inactive)	18.2 µM (inactive)	21.5 µM (inactive)	18.9 µM (inactive)	29.4 µM (inactive)	22.2 µM (inactive)	19.3 µM (inactive)	19.9 µM (inactive)	31.8 µM (inactive)	34.4 µM (inactive)	21.7 µM (inactive)	17.2 µM (inactive)	19.8 µM (inactive)
CCCCCCNC(=O)CCC(NC(=O)c1ccc(N(C)Cc2cnc3nc(N)nc(N)c3n2)cc1)C(=O)NCCCCCC (centres undefined)	> 100 µM (inactive)	> 100 µM (inactive)	> 100 µM (inactive)	2.52 µM (inactive)	> 100 µM (inactive)	–	> 100 µM (inactive)	> 100 µM (inactive)	63 µM (inactive)	> 100 µM (inactive)	> 100 µM (inactive)	> 100 µM (inactive)	37.8 µM (inactive)	> 100 µM (inactive)	7.41 µM (inactive)	> 100 µM (inactive)	> 100 µM (inactive)	2.68 µM (inactive)	> 100 µM (inactive)
CCOC(=O)C(Cc1ccc(N(CCCl)CCCl)cc1)NC(=O)C(Cc1ccccc1)NC=O (centres undefined)	0.273 µM (active)	0.0526 µM (active)	0.286 µM (active)	0.188 µM (active)	0.263 µM (active)	0.109 µM (active)	–	0.00906 µM (active)	0.117 µM (active)	0.338 µM (active)	0.147 µM (active)	0.0208 µM (active)	0.187 µM (active)	–	0.219 µM (active)	0.421 µM (active)	0.205 µM (active)	0.094 µM (active)	0.0186 µM (active)
Cc1cc(NS(=O)(=O)c2ccc(Nc3c4ccccc4nc4c(C(=O)NC(CO)(CO)CO)cccc34)cc2)no1	47.1 µM (inactive)	19.4 µM (inactive)	–	33.3 µM (inactive)	53.5 µM (inactive)	29.4 µM (inactive)	–	43.6 µM (inactive)	15.8 µM (inactive)	> 100 µM (inactive)	39.3 µM (inactive)	48.8 µM (inactive)	19.7 µM (inactive)	52.8 µM (inactive)	32.4 µM (inactive)	34.4 µM (inactive)	34.2 µM (inactive)	22 µM (inactive)	16.9 µM (inactive)
